For seven compounds, EC50 results are on record in patent US10100097B2, “GIP-GLP-1 dual agonist compounds and methods” (Zealand Pharma A/S, priority 2012, dated 2018).

SMILES strings stand for the structures. Numbered stars: 1 amine (or outer) side, 2 acyl side, 3 side chain; on linkers, the order of the positions; unused ones are H or OH. Square brackets hold non-standard residues; d marks the D form. Side chains are listed from the residue outwards. Peptide text beside a SMILES is read from it. * marks the point of attachment. C16 diacid = O=C(O)CCCCCCCCCCCCCCC(=O)*; γGlu = O=C(O)[C@H](CCC(=O)[*:2])N[*:1]; Palmitoyl = CCCCCCCCCCCCCCCC(=O)*; Aib = CC(C)(N)C(=O)O

T2 sequence (P43220 24-463): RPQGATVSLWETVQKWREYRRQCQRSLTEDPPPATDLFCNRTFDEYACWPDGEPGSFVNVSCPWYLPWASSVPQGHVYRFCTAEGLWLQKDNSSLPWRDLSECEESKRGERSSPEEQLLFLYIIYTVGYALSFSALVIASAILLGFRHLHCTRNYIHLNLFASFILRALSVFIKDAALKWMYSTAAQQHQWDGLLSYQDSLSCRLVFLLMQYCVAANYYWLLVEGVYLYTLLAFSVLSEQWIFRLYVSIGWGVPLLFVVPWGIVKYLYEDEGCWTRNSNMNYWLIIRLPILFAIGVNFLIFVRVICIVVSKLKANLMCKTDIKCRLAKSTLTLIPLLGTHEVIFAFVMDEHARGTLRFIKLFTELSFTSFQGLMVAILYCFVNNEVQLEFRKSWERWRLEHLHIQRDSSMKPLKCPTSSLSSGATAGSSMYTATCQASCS

The target of one assay is T1, human GIP R (Homo sapiens, UniProt P48546).
T1 construct: expressed in transfected cells
T1 sequence (P48546 22-466): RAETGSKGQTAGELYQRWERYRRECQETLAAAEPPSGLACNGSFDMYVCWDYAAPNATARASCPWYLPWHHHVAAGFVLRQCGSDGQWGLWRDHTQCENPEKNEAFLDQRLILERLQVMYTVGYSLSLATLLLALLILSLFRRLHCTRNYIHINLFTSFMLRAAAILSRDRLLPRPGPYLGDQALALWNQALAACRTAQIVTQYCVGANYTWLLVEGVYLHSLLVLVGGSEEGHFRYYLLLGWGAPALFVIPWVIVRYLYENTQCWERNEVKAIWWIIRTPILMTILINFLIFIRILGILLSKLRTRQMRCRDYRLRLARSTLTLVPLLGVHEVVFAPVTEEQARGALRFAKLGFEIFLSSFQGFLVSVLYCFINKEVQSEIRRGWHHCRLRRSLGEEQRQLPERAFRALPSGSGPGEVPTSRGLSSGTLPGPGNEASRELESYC
The assay can be described thus: Human GIP receptor (GIP R) activity assay, cAMP induction (AlphaScreen cAMP kit). In kind it is cell-based. As to conditions: HEK293 cells expressing the human GIP R; cAMP induction, 15 min at 37° C.; average values of multiple determinations; read-out: GIP R (EC50 in nM). The protocol: (§1) Human GIP Receptor (GIP R) and GLP-1 Receptor (GLP-1 R) Activity Assay
(§2) In vitro effects of peptide conjugates of the invention were assessed by measuring the induction of cAMP following stimulation of the respective receptor by GIP, GLP1 or analogues of these, as outlined in the invention, using the AlphaSceen® cAMP kit from Perkin-Elmer according to instructions. Briefly. HEK293 cells expressing the human GIP R or GLP-1 R (stable cell lines generated through transfection of the cDNA for human GIP R or GLP-1 and selection of stable clones) were seeded at 30,000 cells/well in 96-well microtiter plates coated with 0.01% poly-L-lysine, and grown for 1 day in culture in 200 μl growth medium (DMEM, 10% FCS, Penicillin (100 IU/ml), Streptomycin (100 μg/ml)). On the day of analysis, growth medium was removed and the cells were washed once with […] Tyrode's buffer (Tyrode's Salts (9.6 g/1), 10 mM HEPES, pH 7.4). […] The Assay buffer was removed and cells are lysed in 80 μl Lysis buffer (0.1% w/v BSA, 5 mM HEPES, 0.3% v/v Tween-20) per well. From each well 10 μl lysed cells was transferred to a 384-well plate and mixed with 15 μl bead-mix (1 Unit/15 μl anti-cAMP Acceptor Beads, 1 Unit/15 μl Donor Beads, and 1 Unit/15 μl Biotinylated cAMP in Assay Buffer). The plates were mixed and incubated in the dark for an hour at room temperature before measuring using an Envision™ plate reader (Perkin-Elmer).
Regarding `CC[C@H](C)[C@H](NC(=O)[C@H](CO)NC(=O)[C@H](Cc1ccc(O)cc1)NC(=O)[C@H](CC(=O)O)NC(=O)[C@H](CO)NC(=O)[C@@H](NC(=O)[C@H](Cc1ccccc1)NC(=O)[C@@H](NC(=O)CNC(=O)[C@H](CCC(=O)O)NC(=O)C(C)(C)NC(=O)[C@@H](N)Cc1ccc(O)cc1)[C@@H](C)O)[C@@H](C)O)C(=O)N[C@@H](Cc1ccc(O)cc1)C(=O)N[C@@H](CO)C(=O)N[C@@H](CC(=O)O)C(=O)N[C@@H](CCCCN)C(=O)N[C@@H](CCCCN)C(=O)N[C@@H](C)C(=O)N[C@@H](CCC(N)=O)C(=O)N[C@@H](CCCNC(=N)N)C(=O)N[C@@H](C)C(=O)N[C@@H](Cc1ccccc1)C(=O)N[C@H](C(=O)N[C@@H](CC(N)=O)C(=O)N[C@@H](Cc1c[nH]c2ccccc12)C(=O)N[C@@H](CC(C)C)C(=O)N[C@@H](CC(C)C)C(=O)N[C@@H](C)C(=O)NC(C)(C)C(=O)N[C@@H](CCCCN)C(N)=O)C(C)C` [Compound 13] (H-Y[Aib]EGTFTSDYSIYSDKKAQRAFVNWLLA[Aib]K-NH2), the EC50 (commonly the concentration that produces a half-maximal response) came to 0.14 nM.

For the compound `CC[C@H](C)[C@H](NC(=O)[C@H](CO)NC(=O)[C@H](Cc1ccc(O)cc1)NC(=O)[C@H](CC(=O)O)NC(=O)[C@H](CO)NC(=O)[C@@H](NC(=O)[C@H](Cc1ccccc1)NC(=O)[C@@H](NC(=O)CNC(=O)[C@H](CCC(=O)O)NC(=O)C(C)(C)NC(=O)[C@@H](N)Cc1ccc(O)cc1)[C@@H](C)O)[C@@H](C)O)C(=O)N[C@@H](Cc1ccc(O)cc1)C(=O)N[C@@H](CC(C)C)C(=O)N[C@@H](CC(=O)O)C(=O)N[C@@H](CCCCN)C(=O)N[C@@H](CCCCN)C(=O)N[C@@H](C)C(=O)N[C@@H](CCC(N)=O)C(=O)N[C@@H](CCCNC(=N)N)C(=O)N[C@@H](C)C(=O)N[C@@H](Cc1ccccc1)C(=O)N[C@H](C(=O)N[C@@H](CC(N)=O)C(=O)N[C@@H](Cc1c[nH]c2ccccc12)C(=O)N[C@@H](CC(C)C)C(=O)N[C@@H](CC(C)C)C(=O)NC(C)(C)C(=O)N[C@@H](CCCCN)C(N)=O)C(C)C` [Compound 24] (H-Y[Aib]EGTFTSDYSIYLDKKAQRAFVNWLL[Aib]K-NH2), the EC50 turned out to be 0.096 nM.

Turning to `CCCCCCCCCCCCCCCC(=O)N[C@@H](CCC(=O)NCCCC[C@H](NC(=O)[C@H](CCC(=O)O)NC(=O)[C@H](CC(=O)O)NC(=O)[C@H](CC(C)C)NC(=O)[C@H](Cc1ccc(O)cc1)NC(=O)[C@@H](NC(=O)[C@H](CO)NC(=O)[C@H](Cc1ccc(O)cc1)NC(=O)[C@H](CC(=O)O)NC(=O)[C@H](CO)NC(=O)[C@@H](NC(=O)[C@H](Cc1ccccc1)NC(=O)[C@@H](NC(=O)CNC(=O)[C@H](CCC(=O)O)NC(=O)C(C)(C)NC(=O)[C@@H](N)Cc1ccc(O)cc1)[C@@H](C)O)[C@@H](C)O)[C@@H](C)CC)C(=O)N[C@@H](C)C(=O)N[C@@H](C)C(=O)N[C@@H](CCCCN)C(=O)N[C@@H](CC(=O)O)C(=O)N[C@@H](Cc1ccccc1)C(=O)N[C@H](C(=O)N[C@@H](CCC(=O)O)C(=O)N[C@@H](Cc1c[nH]c2ccccc12)C(=O)N[C@@H](CC(C)C)C(=O)N[C@@H](CCC(=O)O)C(=O)N[C@@H](CO)C(=O)N[C@@H](C)C(N)=O)[C@@H](C)CC)C(=O)O` [Compound 50] (H-Y[Aib]EGTFTSDYSIYLDEK([γGlu-Palmitoyl])AAKDFIEWLESA-NH2), the EC50 worked out at 0.053 nM.

Turning to `CC[C@H](C)[C@H](NC(=O)[C@H](CO)NC(=O)[C@H](Cc1ccc(O)cc1)NC(=O)[C@H](CC(=O)O)NC(=O)[C@H](CO)NC(=O)[C@@H](NC(=O)[C@H](Cc1ccccc1)NC(=O)[C@@H](NC(=O)CNC(=O)[C@H](CCC(=O)O)NC(=O)C(C)(C)NC(=O)[C@@H](N)Cc1ccc(O)cc1)[C@@H](C)O)[C@@H](C)O)C(=O)N[C@@H](Cc1ccc(O)cc1)C(=O)N[C@@H](CC(C)C)C(=O)N[C@@H](CC(=O)O)C(=O)N[C@@H](CCCCN)C(=O)N[C@@H](CCCCNC(=O)CC[C@H](NC(=O)CCCCCCCCCCCCCCC(=O)O)C(=O)O)C(=O)N[C@@H](C)C(=O)N[C@@H](CCC(N)=O)C(=O)N[C@@H](CCCNC(=N)N)C(=O)N[C@@H](C)C(=O)N[C@@H](Cc1ccccc1)C(=O)N[C@H](C(=O)N[C@@H](CC(N)=O)C(=O)N[C@@H](Cc1c[nH]c2ccccc12)C(=O)N[C@@H](CC(C)C)C(=O)N[C@@H](CC(C)C)C(=O)N[C@@H](C)C(=O)NC(C)(C)C(=O)N[C@@H](CCCCN)C(N)=O)C(C)C` [Compound 31] (H-Y[Aib]EGTFTSDYSIYLDKK([γGlu-C16 diacid])AQRAFVNWLLA[Aib]K-NH2), the EC50 came to 0.022 nM.

A further assay has as its target T2, human GLP-1 R (Homo sapiens, UniProt P43220).
T2 construct: expressed in transfected cells
Description: Human GLP-1 receptor (GLP-1 R) activity assay, cAMP induction (AlphaScreen cAMP kit). The assay is classed as cell-based. The settings on record: HEK293 cells expressing the human GLP-1 R, 15 min at 37° C., average values of multiple determinations, read-out: GLP1 R (EC50 in nM). Here is the method:
as §1, §2
Background: In Alpha technology, singlet oxygen from a donor bead excites a nearby acceptor bead.
Turning to `CC[C@H](C)[C@H](NC(=O)[C@H](CO)NC(=O)[C@H](Cc1ccc(O)cc1)NC(=O)[C@H](CC(=O)O)NC(=O)[C@H](CO)NC(=O)[C@@H](NC(=O)[C@H](Cc1ccccc1)NC(=O)[C@@H](NC(=O)CNC(=O)[C@H](CCC(=O)O)NC(=O)C(C)(C)NC(=O)[C@@H](N)Cc1ccc(O)cc1)[C@@H](C)O)[C@@H](C)O)C(=O)N[C@@H](C)C(=O)N[C@@H](CC(C)C)C(=O)N[C@@H](CCC(=O)O)C(=O)N[C@@H](CCCCN)C(=O)N[C@@H](CCCCN)C(=O)N[C@@H](C)C(=O)N[C@@H](CCC(N)=O)C(=O)N[C@@H](CCCNC(=N)N)C(=O)N[C@@H](C)C(=O)N[C@@H](Cc1ccccc1)C(=O)N[C@H](C(=O)N[C@@H](CC(N)=O)C(=O)N[C@@H](Cc1c[nH]c2ccccc12)C(=O)N[C@@H](CC(C)C)C(=O)N[C@@H](CC(C)C)C(=O)N[C@@H](C)C(=O)NC(C)(C)C(=O)N[C@@H](CCCCN)C(N)=O)C(C)C` [Compound 15] (H-Y[Aib]EGTFTSDYSIALEKKAQRAFVNWLLA[Aib]K-NH2), the EC50 turned out to be 0.01 nM.

As to `CC[C@H](C)[C@H](NC(=O)[C@H](CO)NC(=O)[C@H](Cc1ccc(O)cc1)NC(=O)[C@H](CC(=O)O)NC(=O)[C@H](CO)NC(=O)[C@@H](NC(=O)[C@H](Cc1ccccc1)NC(=O)[C@@H](NC(=O)CNC(=O)[C@H](CCC(=O)O)NC(=O)C(C)(C)NC(=O)[C@@H](N)Cc1ccc(O)cc1)[C@@H](C)O)[C@@H](C)O)C(=O)N[C@@H](Cc1ccc(O)cc1)C(=O)N[C@@H](CC(C)C)C(=O)N[C@@H](CCC(=O)O)C(=O)N[C@@H](CCCCN)C(=O)N[C@@H](CCCCN)C(=O)N[C@@H](C)C(=O)N[C@@H](C)C(=O)N[C@@H](CCCCN)C(=O)N[C@@H](CC(=O)O)C(=O)N[C@@H](Cc1ccccc1)C(=O)N[C@H](C(=O)N[C@@H](CCC(=O)O)C(=O)N[C@@H](Cc1c[nH]c2ccccc12)C(=O)N[C@@H](CC(C)C)C(=O)N[C@@H](CC(C)C)C(=O)N[C@@H](CO)C(=O)N[C@@H](C)C(N)=O)C(C)C` [Compound 37] (H-Y[Aib]EGTFTSDYSIYLEKKAAKDFVEWLLSA-NH2), the EC50 came to 0.018 nM.

For the compound `CCCCCCCCCCCCCCCC(=O)N[C@@H](CCC(=O)NCCCC[C@H](NC(=O)[C@H](CO)NC(=O)[C@H](CC(=O)O)NC(=O)[C@H](CC(C)C)NC(=O)[C@H](Cc1ccc(O)cc1)NC(=O)[C@H](CCCCN)NC(=O)[C@H](CO)NC(=O)[C@H](Cc1ccc(O)cc1)NC(=O)[C@H](CC(=O)O)NC(=O)[C@H](CO)NC(=O)[C@@H](NC(=O)[C@H](Cc1ccccc1)NC(=O)[C@@H](NC(=O)CNC(=O)[C@H](CCC(=O)O)NC(=O)C(C)(C)NC(=O)[C@@H](N)Cc1ccc(O)cc1)[C@@H](C)O)[C@@H](C)O)C(=O)N[C@@H](C)C(=O)N[C@@H](C)C(=O)N[C@@H](Cc1c[nH]cn1)C(=O)N[C@@H](CC(=O)O)C(=O)N[C@@H](Cc1ccccc1)C(=O)N[C@H](C(=O)N[C@@H](CCC(=O)O)C(=O)N[C@@H](Cc1c[nH]c2ccccc12)C(=O)N[C@@H](CC(C)C)C(=O)N[C@@H](CC(C)C)C(=O)N[C@@H](CCCNC(=N)N)C(=O)N[C@@H](C)C(N)=O)C(C)C)C(=O)O` [Compound 51] (H-Y[Aib]EGTFTSDYSKYLDSK([γGlu-Palmitoyl])AAHDFVEWLLRA-NH2), the EC50 came to 0.11 nM.
